Legend:
[1] = system: spermatozoa counts in rats; assay: Effect of Modafinil on spermatogenesis in rats; assay type: in vivo, SD male rats; conditions: for mean number of spermatozoa per gram weight of sperm ± S.D.: SD male rats, sperm from epididymis tail
Method: EXPERIMENTAL ANIMALS: SD male rats, 2 months old, weighing 210 to 260 g, were used for this experiment. All the animals were fed in the laboratory for a week before starting the experiment for accommodative purpose. The animals were distributed randomly into 5 experimental groups, 10 in each group. The room temperature was kept at 20 to 25° C. 4 groups of rats were administrated with Modafinil and 1 group for control.
METHODS AND PROTOCOLS: In treated groups, various doses of Modafinil were given by gavage as 200, 400, 600 and 800 mg/kg/day in rats. Modafinil(prepared according to Example 1 in the U.S. Pat. No. 4,177,290) was mixed with 3% starch paste, 2 ml for each rat per day, gavage feeding for successive 30 days. The controlled animals received the 3% starch paste without drug, with same amount for 30 successive days. The morphology, motility and number of the spermatozoa of the animals in each group were observed and counted. On days 31, all animals were killed. Spermatozoa in the sperm taken from epididymis tail were counted; the testes and prostates were taken out. Histological sections were made and examined under microscope.

SD rats of both sexes = assay: Effect of Modafinil on sexual ability in rats; assay type: in vivo; conditions: 200 mg/kg/day for 15 days
Method: EXPERIMENTAL ANIMALS: SD rats of both sexes were used and feeding methods of the drug were the same as in the Example 1.
EXPERIMENTAL PROTOCOL: 15 males and 15 females for control fed with 3% starch paste for 15 days while 15 males and 15 females were is treated with 200 mg/kg/day of Modafinil(prepared according to Example 1 in the U.S. Pat. No. 4,177,290) for 15 days. On day 16 evening, each special cage was distributed by chance with 1 male and 1 female rat couple. For the first 2 hours of coinhabitation, the numbers of sexual intercourse movement of male along with acceptance of female were counted.

Young female SD rats = assay: Effect of Modafinil on uterus weight in female rats; assay type: in vivo; conditions: 200 mg/kg/day for 15 days
Method: EXPERIMENTAL ANIMAL: Young female SD rats of 25 days old were used. Food and drug administration was the sane as used in the Example 1.
EXPERIMENTAL PROTOCOL: 15 female rats for control were fed 3% starch paste 2 ml/day for 15 successive days. 15 female rats treated with Modafinil(prepared according to Example 1 in the U.S. Pat. No. 4,177,290) mixed with 3% starch paste for 200 mg/kg/day in 2 ml of starch paste a day. Animals were sacrificed on day 16 and the uterei were taken out. Every fresh uterus was weighed.

[2] = cited from earlier work

## NC(=O)C[S+]([O-])C(c1ccccc1)c1ccccc1 (stereo not drawn) [Modafinil, 2-[(Diphenylmethyl)sulfinyl]-N-Acetamide]
[1]; 200 mg/kg/day by gavage for 30 days
  mean number of spermatozoa per gram weight of sperm ± S.D.: 819.8 ± 295.6 per gram weight of sperm
[1]; 400 mg/kg/day by gavage for 30 days
  mean number of spermatozoa per gram weight of sperm ± S.D.: 1753.8 ± 540.6 per gram weight of sperm
[1]; 600 mg/kg/day by gavage for 30 days
  mean number of spermatozoa per gram weight of sperm ± S.D.: 1706.0 ± 379.9 per gram weight of sperm
[1]; 800 mg/kg/day by gavage for 30 days
  mean number of spermatozoa per gram weight of sperm ± S.D.: 1656.0 ± 165.8 per gram weight of sperm
[1]; Modafinil treated groups versus controls, testes sections
  histological examination: stages of normal spermatogenesis in the seminiferous tubules: more distinct and regular than those in the controls
[1]; Modafinil treated groups, testes sections
  histological examination: cell degeneration during the course of spermatogenesis: No cell degeneration was found
[1]; all Modafinil treated groups (200-800 mg/kg/day, 30 days), rats
  number of spermatozoa and motility: remarkably increased with active motility
SD rats of both sexes; males and females treated, first 2 hours of coinhabitation on day 16
  number of sexual intercourse (Mean±S.D.): 5.0±1.2 times/2 hours/couple
SD rats of both sexes; rats
  mean number of sexual intercourse relative to control: 161 % of the control
Young female SD rats
  mean uterus weight relative to controls: 158 % of that in Controls
Young female SD rats; fresh uterus on day 16
  mean uterus weight (Mean+S.D.): 0.418 ± 0.082 g
[2]; acetone
  solubility in acetone: sparingly or slightly soluble
[2]; cyclohexane
  solubility in cyclohexane: insoluble
[2]; methanol
  solubility in methanol: sparingly or slightly soluble
[2]; water
  solubility in water: insoluble
